This is an account of results in patent US20260308196A1, “HELICASE INHIBITORS” (H. LEE MOFFITT CANCER CENTER AND RESEARCH INSTITUTE, INC., priority 2023, published 2026).

The test system of this test is T1, hCMG helicase.
T1 construct: fork-unwinding strand displacement assay with ATP
As to the kind of experiment: helicase assay (fork-unwinding; strand displacement assay). It counts as biochemical, human. The note with it: 20 uL reactions: 1 uL DMSO or drugs, 2 uL hCMG (~15 fmol enzyme), 0.5 mM ATP; RF1-134 compared to CA1 (100% inhibition); drug concentration not given. Here is the method:
For 20 uL reactions: 1 uL DMSO or drugs, 2 uL hCMG (~15 fmol enzyme), and 0.5 mM ATP were added. The noviose sugar (purple box; called RF1-134) was generated using synthetic chemical approaches. […] CA1 refers to coumermycin-A1.

Take `CO[C@H]1[C@H](OC(=O)c2ccc(C)[nH]2)[C@H](O)[C@@H](Oc2ccc3c(O)c(NC(=O)c4c[nH]c(C(=O)Nc5c(O)c6ccc(O[C@H]7OC(C)(C)[C@@H](OC)[C@H](OC(=O)c8ccc(C)[nH]8)[C@@H]7O)c(C)c6oc5=O)c4C)c(=O)oc3c2C)OC1(C)C` [CA1, coumermycin-A1]: the “inhibition of hCMG helicase activity” value turned out to be 100%.
